In paper PMC11790763, “A Peptide Motif Covering Splice Site B in Neuroligin-1 Binds to Aβ and Acts as a Neprilysin Inhibitor” (Molecular Neurobiology, 2024):
Bridges are numbered along the chain shown (N, C = ends). Roman numbers before positions name the chains, in order. Where no end group is shown, it is not given here.

Legend:
[1] = target: Aβ40-1; experiment: Competitive ELISA with reversed Aβ (Aβ40-1) as negative control; assay type: binding; settings: competitive ELISA with biotinylated reverse Aβ40-1; signal only at the highest neurolide concentration; p < 0.0001 versus Aβ1-40
Protocol: NL1 and NL1-derived peptide binding to Aβ was measured by competitive ELISA using the shorter Aβ1-40 peptide with a slower polymerization constant, optimized for this binding assay. Recombinant NL1 (3.125 nM) was immobilized on a poly-sorb 96-well plate (NUNC, Roskilde, Denmark) using sodium bicarbonate buffer (pH 9.6), and left overnight at 4 °C, followed by washing with PBST buffer (PBS supplemented with 0.1% [vol/vol] Tween-20, pH 7.4). In separate tubes, biotinylated Aβ1-40, at final concentration 400 nM, was premixed with serially diluted NL1 or NL1-derived peptides for 30 min. A reversed version of Aβ (Aβ40-1) was used as the respective negative control (Supplementary Fig. 1). After preincubation, the samples were centrifuged at 20,000 × g for 10 min at 4 °C and 100 μl of the mixtures were transferred in triplicates onto the precoated ELISA plate. Plates were incubated at room temperature for 4 h, followed by washing and incubation with streptavidin-HRP conjugate (1:1000, 1 h; Dako, Glostrup, Denmark). The signal was developed with TMB ONE (KEM-EN-TEC, Denmark), and the reaction was terminated with 0.2 M H2SO4. Absorbance was measured at 450 nm on a Wallac VICTOR2 1420 Multilabel Counter (PerkinElmer, Hvidovre, Denmark). […]

[2] = target: T1, Aβ1-40 (Homo sapiens, UniProt P05067); experiment: Competitive ELISA, binding to biotinylated Aβ1-40
T1 construct: biotinylated Aβ1-40, at final concentration 400 nM; purchased Bachem AG (Bubendorf, Switzerland) or Schafer-N; host or cells: synthetic peptide
Protocol: NL1 and NL1-derived peptide binding to Aβ was measured by competitive ELISA using the shorter Aβ1-40 peptide with a slower polymerization constant, optimized for this binding assay. Recombinant NL1 (3.125 nM) was immobilized on a poly-sorb 96-well plate (NUNC, Roskilde, Denmark) using sodium bicarbonate buffer (pH 9.6), and left overnight at 4 °C, followed by washing with PBST buffer (PBS supplemented with 0.1% [vol/vol] Tween-20, pH 7.4). In separate tubes, biotinylated Aβ1-40, at final concentration 400 nM, was premixed with serially diluted NL1 or NL1-derived peptides for 30 min. A reversed version of Aβ (Aβ40-1) was used as the respective negative control (Supplementary Fig. 1). After preincubation, the samples were centrifuged at 20,000 × g for 10 min at 4 °C and 100 μl of the mixtures were transferred in triplicates onto the precoated ELISA plate. Plates were incubated at room temperature for 4 h, followed by washing and incubation with streptavidin-HRP conjugate (1:1000, 1 h; Dako, Glostrup, Denmark). The signal was developed with TMB ONE (KEM-EN-TEC, Denmark), and the reaction was terminated with 0.2 M H2SO4. Absorbance was measured at 450 nm on a Wallac VICTOR2 1420 Multilabel Counter (PerkinElmer, Hvidovre, Denmark). KD values were derived by sigmoidal dose–response (variable slope) fit of NL1 and neurolide dose–response curves after log transformation according to GraphPad Prism (version 6, GraphPad, San Diego, CA, USA). Obtained inhibitory concentration IC50 value was interpreted as KD value.

[3] = tested on: WT and 5XFAD mice; experiment: Novel object recognition task; assay type: in vivo, mouse; settings: 10 mg/kg s.c. three times a week for 10 weeks
Protocol: At the age of 2 months, 5XFAD and WT mice were injected subcutaneously (s.c.) with either neurolide (10 mg/kg) or saline in a volume of 0.1 ml/10 g of body weight three times a week for 10 weeks.
The novel object recognition assay is based on the innate tendency of animals to differentially explore novel and familiar objects and consists of habituation, training, short-term (2 h) and long-term (24 h) memory retention sessions. On day 1, the mice were habituated to the test area (a 35 × 35 cm box with a floor divided into 16 squares). Each mouse was placed into a box without objects and allowed to explore it freely for 5 min. During a training session, a mouse was placed in the test box and exposed to 2 identical nontransparent glass objects placed in the box. During 5 min, locomotion and exploration time for both objects were recorded. Exploration of an object was defined as pointing the nose to the object at a distance of ≤ 1 cm and/or touching it with the nose. Climbing or sitting on the object was not considered exploration. Short-term memory retention was evaluated 2 h after the training session, whereas long-term memory retention was evaluated 24 h after the training session. During both sessions, mice were exposed to the familiar object and to a novel object. The exploration time for the familiar and novel objects and locomotion were recorded for 5 min. Mice failing to explore one or both objects in the training trial were excluded from the statistical analysis.

T1 sequence (P05067 672-711): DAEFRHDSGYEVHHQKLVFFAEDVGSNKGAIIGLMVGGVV

## I: SEGNRWSNSTKGLFQRAKK-NH2 / II: SEGNRWSNSTKGLFQRAK / III: SEGNRWSNSTKGLFQRA / IV: SEGNRWSNSTKGLFQRA (amide I:18-IV:C, I:19-II:C, II:18-III:C; C-terminus assumed) [neurolide]
[1]
  Kd: 7.5 µM
[2]
  binding affinity to Aβ, times lower than that of the parent sNL1 domain: approximately 2 times
[3]; 5XFAD mice, versus vehicle, p < 0.05
  recognition index, short-term memory (2 h): significantly enhanced
[3]; WT and 5XFAD mice, same tendency as at 2 h
  recognition index, long-term memory (24 h): no longer statistically significant
[3]; WT mice, vehicle higher than neurolide, p < 0.01
  recognition index, short-term memory (2 h): impairs memory
